The values below come from ChEMBL document CHEMBL1201862, “PubChem BioAssay data set” (2004).

Usually GI50 stands for the concentration that inhibits growth by half.

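Results reflect a 48-hour exposure of cells in 96-well plates to compound at five concentrations. Abbreviation: GI50, concentration required for 50% inhibition of growth.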 Active and inactive are the calls of the source. Rule as the data show it: active = GI50 up to about 1.1 µM and inactive = higher. Where only a bound is given, the exact number is not on record here.

Test systems include TK-10; CCRF-CEM; SK-MEL-5; SNB-75; SK-MEL-28; NCI-H460; OVCAR-4; HCT-116; BT-549; HOP-62; OVCAR-3; IGROV-1; COLO 205; LOX IMVI; UO-31; HOP-92; HCT-15; A549; Malme-3M.
Common to all, as to test: DTP human tumour cell line panel, 48 h

As to `COc1cc2c(cc1OCCCCCN1C(=O)c3cccc4cccc(c34)C1=O)N=C[C@@H]1CCCN1C2=O`, the concentration for 50% growth inhibition (GI50) in the assay on TK-10 was 0.129 µM (active); in the assay with CCRF-CEM, 0.0142 µM (active); in the assay with SK-MEL-5, 0.257 µM (active); with SNB-75, 0.34 µM (active); in the assay on SK-MEL-28 it was 0.301 µM (active); with NCI-H460, 0.316 µM (active). The concentration for 50% growth inhibition (GI50) in the assay on OVCAR-4 is 0.248 µM (active); in the assay with HCT-116, 0.215 µM (active); in the assay on BT-549, 0.244 µM (active); in the assay with HOP-62, 0.262 µM (active); in the assay on OVCAR-3, 0.184 µM (active); in the assay with IGROV-1 it was 0.0552 µM (active). The 50% growth inhibitory concentration (GI50) was 0.28 µM (active) in the assay with COLO 205; 0.126 µM (active) in the assay with LOX IMVI; 0.153 µM (active) in the assay on UO-31; 0.142 µM (active) with HOP-92; 0.331 µM in the assay with HCT-15; 0.535 µM (active) in the assay with A549. Besides, in the assay with Malme-3M, the GI50 was 0.163 µM (active).

As for `CSc1c(CC(=O)Nc2ccc(Cl)cc2)n(Cc2ccccc2)c2ccccc12`, the GI50 is 16 µM (inactive) in the assay with TK-10; 40.3 µM (inactive) in the assay with CCRF-CEM; 29.9 µM (inactive) in the assay with SK-MEL-5; 13 µM (inactive) with SNB-75; > 100 µM (inactive) with SK-MEL-28; 25.5 µM (inactive) in the assay on NCI-H460. The GI50 with OVCAR-4 is 11.7 µM (inactive); in the assay with HCT-116, 23.9 µM (inactive); in the assay with BT-549 it was 15.1 µM (inactive); with HOP-62 it was 21.2 µM (inactive); in the assay with OVCAR-3, > 100 µM (inactive); with IGROV-1, 26.5 µM (inactive). Further, the GI50 was 44.6 µM (inactive) in the assay on COLO 205; 38 µM (inactive) in the assay on LOX IMVI; 34.3 µM (inactive) with UO-31; 13.7 µM (inactive) in the assay with HOP-92; 30.5 µM in the assay on HCT-15; 43.5 µM (inactive) in the assay on A549. The GI50 with Malme-3M is 57.7 µM (inactive).

Turning to `COc1cccc(Nc2nc(N)nc(N)c2N=O)c1`, the GI50 in the assay on TK-10 is 19.8 µM (inactive); in the assay with CCRF-CEM, 23.2 µM (inactive); in the assay with SK-MEL-5, 18.7 µM (inactive); with SNB-75, 10.8 µM (inactive); with SK-MEL-28, 22 µM (inactive); in the assay on NCI-H460 it was 13.6 µM (inactive). Besides, the GI50 in the assay with OVCAR-4 was 31.8 µM (inactive); with HCT-116, 18.4 µM (inactive); in the assay on BT-549 it was 28 µM (inactive); with HOP-62 it was 28.8 µM (inactive); with OVCAR-3, 15.6 µM (inactive); with IGROV-1, 2.38 µM (inactive). Moreover, the GI50 is 24.4 µM (inactive) in the assay on COLO 205; 15.1 µM (inactive) in the assay with LOX IMVI; 9.4 µM (inactive) with UO-31; 7.14 µM (inactive) in the assay with HOP-92; 22 µM with HCT-15; 31 µM (inactive) in the assay on A549. Moreover, in the assay on Malme-3M, the GI50 was 29.2 µM (inactive).

With `COCc1nc2c(OC)c(-c3nc4ccc(N5CCN(C)CC5)cc4[nH]3)cc(OC)c2[nH]1`, the GI50 with TK-10 was 84.9 µM (inactive); with CCRF-CEM it was 27.5 µM (inactive); in the assay on SK-MEL-5 it was 22.2 µM (inactive); in the assay with SNB-75, 4.3 µM (inactive); in the assay on SK-MEL-28, > 100 µM (inactive); with NCI-H460, 36.7 µM (inactive). For the same compound, the GI50 with OVCAR-4 was 59.2 µM (inactive); with HCT-116 it was 30.8 µM (inactive); in the assay with BT-549 it was > 100 µM (inactive); in the assay on HOP-62 it was 32.4 µM (inactive); in the assay with OVCAR-3, 29.7 µM (inactive); with IGROV-1 it was 97.9 µM (inactive). Besides, the GI50 was 25.6 µM (inactive) in the assay with COLO 205; 18.7 µM (inactive) in the assay with LOX IMVI; 31.2 µM (inactive) in the assay on UO-31; > 100 µM (inactive) with HOP-92; 56.1 µM with HCT-15; 48.9 µM (inactive) in the assay with A549. Besides, the GI50 in the assay with Malme-3M is 16.9 µM (inactive).
